# Measurements from article PMC10812557, “Progressive Design of a Ranatuerin-2 Peptide from Amolops wuyiensis: Enhancement of Bioactivity and In Vivo Efficacy” (Antibiotics, 2023).
# Read-outs that look alike come from different tables or passages of the source. Bridge positions count the residues as written; N and C are the ends. Peptide text beside a SMILES is read from it.
# Columns and labels:
# E. coli (ATCC 8739) [1] = assay type: cell-based; settings: ATCC 8739, 18 h
# Text: (§1) The MIC and MBC assays were used to assess the inhibitory activities of all 5 analogues of R2AW on the growth of planktonic microorganisms. The MIC is the lowest concentration that prevents the viable growth of bacteria. The MBC is the lowest concentration that results in bacterial death. Six microorganisms were used to detect the antimicrobial activity of peptides, including Gram-positive bacteria S. aureus (NCTC 10788), MRSA (NCTC 12493), Enterococcus faecalis (E. faecalis) (NCTC 12697), Gram-negative bacteria E. coli […], Klebsiella pneumoniae (K. pneumoniae) (ATCC 43816), and Pseudomonas aeruginosa (P. aeruginosa) (ATCC 9027). According to the assay described previously, the microorganisms were inoculated at 37 °C overnight and diluted to 5 × 10^5 CFU/mL after reaching the logarithmic growth period. The peptide stock solution at the concentration of 512 × 10^2 μM was prepared and diluted to 100 μM by a 2-fold dilution. One μL of each concentration of peptide solution was incubated with 99 μL of bacterial subculture in the 96-well plate for 18 h at 37 °C. The absorbance was determined at a wavelength of 550 nm using a Synergy HT plate reader (Bio Tek, Washington, DC, USA). […] As for those wells that were clearly visible, 20 μL of the solution was dropped onto the Mueller Hinton agar (MHA) dish and then incubated at 37 °C overnight. The lowest concentration with no colony growth was determined as the MBC.
# [2] = test system: P. aeruginosa (ATCC 9027); assay type: cell-based; settings: ATCC 9027, 18 h
# Text: as §1
# [3] = test system: K. pneumoniae (ATCC 43816); assay type: cell-based; settings: ATCC 43816, 18 h
# Text: as §1
# E. faecium (NTCC 12697) [4] = assay type: cell-based
# Procedure: (§2) As a previous study described in detail, the ability of R2AW and its analogues to inhibit and eradicate the formation of biofilm was investigated. The MBIC is the lowest concentration which inhibits the formation of biofilm. The MBEC is the minimum concentration that eradicates biofilm. Six bacterial strains were used, as described above. Briefly, the bacteria were cultured and then diluted to 5 × 10^5 CFU/mL. In MBIC assays, 1 μL of each concentration of R2AW and its analogues (ranging from 512 × 10^2 μM to 100 μM) was mixed with 99 μL of diluted bacterial suspension in a 96-well plate for 16-20 h at 37 °C. As for MBEC assays, 100 μL of cultured bacteria were seeded in a 96-well plate and incubated on the shaking incubator at 37 °C overnight for biofilm formation. Subsequently, each well was rinsed twice with 100 μL sterile PBS to remove planktonic cells, and then replaced with 100 μL of each concentration (ranging from 512 μM to 1 μM) of peptides. After 24 h incubation, the biofilm was washed twice with 100 μL of PBS and fixed with methanol. Next, the same volume of 0.1% crystal violet solution (Sigma-Aldrich, Gillingham, UK) was added to each well to stain the biofilm. After that, 100 μL of 30% of acetic acid (Sigma-Aldrich, Gillingham, UK) was transferred to each well for dissolution. The solutions were transferred into a new 96-well plate and the absorbances of wells was monitored using a Synergy HT plate reader set to 595 nm.
# MCF-7 = assay type: cell-based, human; settings: 24 h
# Procedure: (§3) Five human cancer cell lines of non-small-cell lung cancer H838, human prostate carcinoma PC-3, human neuronal glioblastoma U251MG, human breast cancer cell MCF-7, and colorectal carcinoma HCT116 were used to detect the antiproliferative abilities of R2AW and its five analogues. According to the procedures in a previous article, cells (8000 cells/well) were seeded into the 96-well tissue culture plates and incubated at 37 °C with 5% CO2 overnight. The solutions of R2AW and its analogues at concentrations of 10^−4 M to 10^−9 M were prepared in the serum-free medium. Next, cells in each well were treated with 100 μL of each peptide solution for 24 h. Subsequently, 10 μL of 5 mg/mL MTT (3-(4, 5-Dimethylthiazol-2-yl-)-2, 5-Diphehyltetrazolium Bromide) was added to each well followed by 37 °C incubation for 2 h. After that, the liquid in each well was removed and 100 μL of DMSO was added to dissolve the purple formazan. The plate was placed on a shaking incubator for 10 min, and the absorbance was detected at 550 nm using a Synergy HT plate reader (Biotech, Minneapolis, MN, USA).
# H838 = assay type: cell-based, human; settings: 24 h
# Procedure: as §3
# U251MG = assay type: cell-based, human; settings: 24 h
# Procedure: as §3
# HCT116 = assay type: cell-based, human; settings: 24 h
# Procedure: as §3
# PC-3 = assay type: cell-based, human; settings: 24 h
# Procedure: as §3
# [5] = test system: P. aeruginosa (ATCC 9027); assay type: cell-based, Pseudomonas aeruginosa
# Procedure: as §2
# [6] = test system: K. pneumoniae (ATCC 43816); assay type: cell-based, Klebsiella pneumoniae
# Procedure: as §2
# [7] = test system: five human cancer cell lines; assay type: cell-based; settings: 24 h
# Procedure: as §3
# MRSA (NCTC 12493) [8] = assay type: cell-based, methicillin-resistant Staphylococcus aureus
# Procedure: as §2
# E. coli (ATCC 8739) [9] = assay type: cell-based, Escherichia coli
# Procedure: as §2
# E. faecium (NTCC 12697) [10] = assay: microbe, parasite or virus in culture; assay type: cell-based; settings: NTCC 12697, 18 h
# Text: as §1
# MRSA (NCTC 12493) [11] = assay: microbe, parasite or virus in culture; assay type: cell-based; settings: MRSA (NCTC 12493)
# Text: as §1
# S. aureus (NCTC 10788) [12] = assay: microbe, parasite or virus in culture; assay type: cell-based; settings: NCTC 10788, 18 h
# Text: as §1
# S. aureus (NCTC 10788) [13] = assay type: cell-based, Staphylococcus aureus
# Procedure: as §2
# Haemolysis assay = assay type: cell-based, horse; settings: horse erythrocytes (washed red blood cell suspension); horse erythrocytes, up to 256 μM
# Procedure: The haemolytic activity of R2AW and its five designed analogues on mammalian erythrocytes was evaluated using 2% defibrinated horse blood (TCS Biosciences Ltd., Buckingham, UK) as per a previous report. Two mL of fresh horse blood was transferred into a 50 mL tube and then washed with sterilised PBS. The supernatant was removed after centrifuging (930× g, 5 min). The centrifugation procedure was repeated until the supernatant was clear. After washing, the red blood cell pellet was diluted with PBS to achieve a 4% (v/v) erythrocyte suspension. The concentrations of R2AW and its designed derivatives were prepared from 512 μM to 2 μM by two-fold dilution in sterilised PBS. One hundred µL of red blood cell suspension was added into a 1.5 mL tube treated with the same volume of each concentration of peptide and incubated at 37 °C for 2 h. The red blood cell suspensions treated with 0.2% Triton X-100 and with PBS were regarded as positive control and negative control. After centrifugation at 930× g for 10 min, 100 μL of suspension was transferred to a 96-well plate, and the absorbance was obtained by use of a Synergy HT plate reader. The degree of haemolysis could be calculated using the following formula: Haemolysis = (absorbance (experimental groups) − absorbance (negative control))/(absorbance (positive control) − absorbance (negative control)) × 100%.
Compound,MBC (E. coli (ATCC 8739) [1]),MIC (E. coli (ATCC 8739) [1]),MBC [2],MIC [2],MBC [3],MIC [3],MBEC (E. faecium (NTCC 12697) [4]),MBIC (E. faecium (NTCC 12697) [4]),IC50 (MCF-7),IC50 (H838),IC50 (U251MG),IC50 (HCT116),IC50 (PC-3),MBEC [5],MBIC [5],MBEC [6],MBIC [6],MBEC (E. coli (ATCC 8739) [9]),MBIC (E. coli (ATCC 8739) [9]),MBC (E. faecium (NTCC 12697) [10]),further results
CC[C@H](C)[C@@H]1NC(=O)[C@H](CCCCN)NC(=O)[C@@H](NC(=O)[C@H](CCCCN)NC(=O)[C@H](CC(C)C)NC(=O)[C@H](CCCCN)NC(=O)[C@H](CC(=O)O)NC(=O)[C@H](CC(C)C)NC(=O)[C@H](CC(C)C)NC(=O)[C@@H](NC(=O)[C@H](C)NC(=O)[C@H](C)NC(=O)[C@@H](NC(=O)[C@H](CC(N)=O)NC(=O)[C@H](CCCCN)NC(=O)[C@H](C)NC(=O)[C@@H](NC(=O)[C@H](CC(N)=O)NC(=O)[C@H](CCCCN)NC(=O)[C@H](C)NC(=O)[C@@H](NC(=O)[C@H](CC(=O)O)NC(=O)[C@H](CCSC)NC(=O)[C@H](Cc2ccccc2)NC(=O)CN)[C@@H](C)O)C(C)C)C(C)C)[C@@H](C)O)CSSC[C@@H](C(=O)O)NC(=O)CNC(=O)CNC(=O)[C@H]([C@@H](C)O)NC1=O [R2AW] (H-GFMDTAKNVAKNVAATLLDKLKCKITGGC-OH; disulfide 23-29),193 mg/L,32 µM,1541 mg/L,385 mg/L,771 mg/L,385 mg/L,>512 µM,>512 µM,33.2 µM,10.8 µM,30.8 µM,10.8 µM,5.09 µM,>512 µM,>512 µM,512/>512 µM,512/>512 µM,512 µM,128 µM,771 mg/L,IC50 [7]: 5.09 to 33.2 µM; MBEC (MRSA (NCTC 12493) [8]; NCTC 12493): > 512 µM; MBIC (MRSA (NCTC 12493) [8]; NCTC 12493): 256 µM; MIC (E. faecium (NTCC 12697) [10]): 770 mg/L; MBC (MRSA (NCTC 12493) [11]): 1541 mg/L; MIC (MRSA (NCTC 12493) [11]): 770 mg/L; MBC (S. aureus (NCTC 10788) [12]): 193 mg/L; MIC (S. aureus (NCTC 10788) [12]): 32 µM; MBEC (S. aureus (NCTC 10788) [13]): > 512 µM; MBIC (S. aureus (NCTC 10788) [13]): 128 µM
"CC[C@H](C)[C@H](NC(=O)[C@H](CCCCN)NC(=O)[C@H](CO)NC(=O)[C@H](CCCCN)NC(=O)[C@H](CC(C)C)NC(=O)[C@H](CCCCN)NC(=O)[C@H](CC(=O)O)NC(=O)[C@H](CC(C)C)NC(=O)[C@H](CC(C)C)NC(=O)[C@@H](NC(=O)[C@H](C)NC(=O)[C@H](C)NC(=O)[C@@H](NC(=O)[C@H](CC(N)=O)NC(=O)[C@H](CCCCN)NC(=O)[C@H](C)NC(=O)[C@@H](NC(=O)[C@H](CC(N)=O)NC(=O)[C@H](CCCCN)NC(=O)[C@H](C)NC(=O)[C@@H](NC(=O)[C@H](CC(=O)O)NC(=O)[C@H](CCSC)NC(=O)[C@H](Cc1ccccc1)NC(=O)CN)[C@@H](C)O)C(C)C)C(C)C)[C@@H](C)O)C(=O)N[C@H](C(=O)NCC(=O)NCC(=O)N[C@@H](CO)C(=O)O)[C@@H](C)O [[Ser^23,29]R2AW] (H-GFMDTAKNVAKNVAATLLDKLKSKITGGS-OH)",381 mg/L,64 µM,> 1526 mg/L,1526 mg/L,1526 mg/L,763 mg/L,>512 µM,>512 µM,62.7 µM,19.3 µM,37.3 µM,31.6 µM,17.4 µM,>512 µM,>512 µM,>512 µM,>512 µM,512 µM,128 µM,1526 mg/L,hemolysis at 2 h (Haemolysis assay): ~10%; MBEC (MRSA (NCTC 12493) [8]; MRSA (NCTC 12493)): > 512 µM; MBIC (MRSA (NCTC 12493) [8]; MRSA (NCTC 12493)): 256 µM; MBC (MRSA (NCTC 12493) [11]): 1526 mg/L; MIC (MRSA (NCTC 12493) [11]): 763 mg/L; MBC (S. aureus (NCTC 10788) [12]): 191 mg/L; MIC (S. aureus (NCTC 10788) [12]): 64 µM; MBEC (S. aureus (NCTC 10788) [13]): > 512 µM; MBIC (S. aureus (NCTC 10788) [13]): 128 µM
